Test results as given in patent US11142524B2, “Substituted-3H-imidazo[4,5-c]pyridine and 1H-pyrrolo[2,3-c]pyridine series of novel Ectonucleotide Pyrophosphatase/Phosphodiesterase-1 (ENPP1) and stimulator for interferon genes (STING) modulators as cancer immunotherapeutics” (Stingray Therapeutics, Inc., priority 2018, dated 2021).

How the values were obtained:
Saos-2 Cells = experiment: ENPP1 Mineralization Assay; assay type: cell-based; conditions: FIG. 4, normalized against DMSO control
Description: Saos-2 Cells (ATCC CAT #HTB-85). Culture Medium. 24-well Tissue Culture Plate. Ascorbic Acid, 5 mg/mL (100×). β-Glycerophosphate, 1M (100×). Phosphate Buffered Saline. Alizarin Red, 40 mM pH 4.2. 70% Ethanol. Dye Extraction Reagent, 10% Methanol+10% Acetic Acid
Saos-2 cells were plated at a density of 1.5×10^6 cells/well and allowed to grow to 100% confluency over the following 1-2 days. Once completely confluent, the media was replaced with fresh media supplemented with 1× ascorbic acid, 1× β-glycerophosphate, and varying concentrations of ENPP1 inhibitor (if applicable). The addition of the mineralization components was considered Day 1. On Day 3, the media was gently aspirated with no wash followed by the addition of fresh media, mineralization components, and ENPP1 inhibitor (if applicable). On day 5, the media was gently aspirated and the cells were washed twice with PBS. The cells were then fixed with ice cold 70% ethanol for 1 hour at 4° C. Cells were washed once with PBS and stained with Alizarin Red for 30 minutes at room temperature with gentle rotation. Stained cells were washed three times with water for 10 minutes at room temperature with gentle rotation. After imaging cells, dye extraction reagent was added to each well and incubated for 30 minutes at room temperature. Alizarin red was quantified by measuring absorbance at a wavelength of 405 nm using the Envision.
FIG. 9 depicts a picture of results of a similar SAOS-2 mineralization assay. SAOS-2 cell were cultured in the presence and absence of ENPP1 inhibitor (compound 78, 107-02 or 108) and exposed to mineralization components for 3 days.

ENPP1 protein [1] = target: T1, ENPP1 protein (Homo sapiens (Human), UniProt P22413); experiment: ENPP1 Inhibition Assay (thymidine 5′-monophosphate p-nitrophenol ester substrate); assay type: biochemical
T1 sequence (P22413 whole entry, looked up, change not shown): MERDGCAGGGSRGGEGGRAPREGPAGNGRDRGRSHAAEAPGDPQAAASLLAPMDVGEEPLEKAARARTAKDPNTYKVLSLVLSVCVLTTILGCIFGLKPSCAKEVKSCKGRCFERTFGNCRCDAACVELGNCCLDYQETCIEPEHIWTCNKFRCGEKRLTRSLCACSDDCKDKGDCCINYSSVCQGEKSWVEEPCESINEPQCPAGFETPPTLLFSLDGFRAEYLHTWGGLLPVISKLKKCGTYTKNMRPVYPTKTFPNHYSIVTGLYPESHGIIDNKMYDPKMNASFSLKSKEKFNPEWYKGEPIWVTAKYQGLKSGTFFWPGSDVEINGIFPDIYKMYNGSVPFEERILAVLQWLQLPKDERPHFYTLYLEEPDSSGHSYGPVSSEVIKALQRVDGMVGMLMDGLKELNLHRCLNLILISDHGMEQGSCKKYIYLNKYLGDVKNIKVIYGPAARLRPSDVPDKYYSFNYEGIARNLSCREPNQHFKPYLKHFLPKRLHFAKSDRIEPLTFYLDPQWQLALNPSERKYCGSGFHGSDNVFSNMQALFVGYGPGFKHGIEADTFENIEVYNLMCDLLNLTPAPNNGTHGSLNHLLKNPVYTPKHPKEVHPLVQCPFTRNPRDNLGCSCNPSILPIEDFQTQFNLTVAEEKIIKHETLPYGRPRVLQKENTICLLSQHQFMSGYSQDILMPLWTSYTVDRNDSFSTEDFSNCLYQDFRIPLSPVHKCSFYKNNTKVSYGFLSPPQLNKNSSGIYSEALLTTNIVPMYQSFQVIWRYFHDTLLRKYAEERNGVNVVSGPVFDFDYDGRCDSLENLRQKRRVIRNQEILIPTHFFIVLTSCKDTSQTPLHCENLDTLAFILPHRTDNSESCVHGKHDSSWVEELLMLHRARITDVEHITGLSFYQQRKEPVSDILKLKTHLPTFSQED
Description: Assay Buffer: 1 mM CaCl2, 0.2 mM ZnCl2, 50 mM Tris, pH 9.0. Substrate: 8 mM Thymidine 5′-monophosphate p-nitrophenol ester sodium salt (Sigma Cat #T4510). Enzyme: 5 ng/L Recombinant Human ENPP-1 Protein (R&D Cat #6136-EN-010) in DMSO in 96-well clear assay plates
(§1) An eight point serial dilution of drugs was prepared in 10× in assay buffer with the final assay concentrations starting at 10 μM, 3 μM, 1 μM, 0.3 μM . . . 0 μM. A dilution of DMSO was included as a control. The assay plate was set up as follows with each well in duplicate: 81 μL assay buffer+10 μL ENPP1 inhibitor or DMSO+5 μL Substrate+4 μL Enzyme. Both the enzyme and substrate were added to opposite sides of the well to ensure that there was no interaction until all wells had both components. The plate was then centrifuged gently for 10 seconds, followed by an incubation at 37° C. for 45 minutes. The reaction was quantified by measuring absorbance at 405 nm using the Envision.
(§2) IC50 values are determined using GraphPad Prism 5 software. The data were entered as an X-Y plot into the software as percent inhibition for each concentration of the drug. The concentration values of the drug were log transformed and the nonlinear regression was carried out using the “sigmoidal dose-response (variable slope)” option within the GraphPad software to model the data and calculate IC50 values. The IC50 values reported are the concentration of drug at which 50% inhibition was reached.

ENPP1 protein [2] = target: T1, ENPP1 protein; experiment: ENPP1 Thermal Shift Assay (Example 1); assay type: binding
Description: Assay Buffer (1 mM CaCl2, 0.2 mM ZnCl2, 50 mM Tris, pH 9.0) 5000×SYPRO Orange (ThermoFisher cat #S6651) 384-well PCR Plates
Each drug was prepared as a 10× solution in the assay buffer and SYPRO Orange was diluted to 10× concentration in water. Wells were set up in duplicate in a 384-well PCR plate as follows: 14 μL assay buffer, 2 μL ENPP1 Inhibitor or DMSO, 2 μL (0.5 μg) ENPP1 protein. Each well was mixed and incubated on ice for 5 minutes. Post incubation, 2 μL of SYPRO Orange was mixed into each well and followed by a gentle centrifugation. The protein melt reaction was run using ViiA7 software with temperatures beginning at 25° C. and increasing by 0.05° C./s to the maximum temperature of 99° C.
In a 384-well plate, 1.0 μg of ENPP1 protein incubated with 100 μM of the corresponding drug for 5 minutes. Each well exposed to increasing temperatures to determine an unfolding temperature of the protein.

[3] = target: Recombinant Human ENPP-2/Autotaxin Protein (Homo sapiens (Human), UniProt Q13822); experiment: ENPP2 Inhibition Assay; assay type: biochemical
Description: Assay Buffer: 10 mM CaCl2, 5 mM MgCl2, 50 mM Tris, 0.02% Brij-35, pH 8.5. Substrate: 2 mM Bis(p-Nitrophenyl) Phosphate Sodium Salt (Sigma Cat # N3002). Enzyme: 0.2 ng/μL Recombinant Human ENPP-2/Autotaxin Protein (R&D Cat #5255-EN), PF-3080 in DMSO in 96-well clear assay plates
as §1, with “15” for “81”, “DMSO+50” for “DMSO+5”, “Substrate+25” for “Substrate+4”
as §2

B16F10 tumor = experiment: Anti-tumor efficacy in B16F10 (melanoma) syngeneic model; assay type: in vivo, C57BL/6 mice
From the text: Animals: Female C57BL/6 (4-6 week's age from Taconic).
The B16F10 cells were propagated in DMEM cell culture medium containing 10% Fetal Bovine Serum. Cells were harvested in logarithmic growth phase and implanted subcutaneously ([…]) in the lower abdomen of mice. Tumor growth was monitored daily and after the tumors had reached 80 to 100 mm3, mice were randomized into groups consisting of 8 animals per group. Animals were euthanized when tumors reached around 2000 mm^3 or treatment regime completed or 20% of body weight loss, or developed ulceration and necrosis. Upon termination, tumor samples and blood were collected and analyzed for biomarkers.

CT26 tumor = CT26 tumor growth inhibition study; assay type: in vivo; conditions: 30 mg P.O. QD, FIG. 14
MDA-MB-468 = experiment: Chou-Talalay Synergy Study with Olaparib, MDA-MB-468; assay type: cell-based; conditions: MDA-MB-468, 72 hours
Description: Cell Lines: MDA-MB-468 and UWB289.1 (ATCC). Cell Titer Glo (Promega cat #: G7572). 96-well TC treated, white assay plates
Cells were cultured according to ATCC tissue culture recommendations. Cells were plated in a 96-well tissue culture plate at a density of 1500 cells/well and allowed to settle overnight. The following day, both drugs were prepared at 10× concentration in the following ratios (Compound 22:Olaparib): 1:1, 10:1, and 1:10. The drugs were serially diluted to create an 8-point dose curve and 10 μL of each drug was added to the cells for a total volume of 100 μL/well. Plates were placed in a tissue culture incubator for 72 hours. Following incubation, each plate was treated with Cell Titer Glo according to vendor recommendation and luminescence was measured with the Envision Plate Reader. Data was analyzed using CalcuSyn software according to the methods described in Chou, Drug combination studies and their synergy quantification using the Chou-Talalay method, Cancer Res. 2010 Jan. 15; 70(2):440-6.
A Combination index (CI) value greater than 1 indicates […], equal to 1 indicates additive and less than 1 indicates synergy.

Q: Which “inhibiting ENPP1 ability to produce mineralized nodules” value (Saos-2 Cells) does the source give for `COc1ccc(NC(=O)CSc2nc3cc(Cl)ncc3[nH]2)cc1O` [Compound 21, 2-((6-chloro-3H-imidazo[4,5-c]pyridin-2-yl)thio)-N-(3-hydroxy-4-methoxyphenyl) acetamide] here?
A: The value was “effective”.

Q: And the “inhibiting the activity of ENPP1” value (ENPP1 protein [1]; FIG. 1)?
A: Its value is “effective”.

Q: What about the IC50 (ENPP1 protein [1]; Table 1, FIG. 1, read-out: IC50) of the same compound?
A: Its IC50 is 86.8 nM.

Q: And the “increasing the stability of recombinant ENPP1 protein” value (ENPP1 protein [2]; FIG. 3)?
A: The value was “effective”.

Q: What about the “Tm (midpoint of the protein unfolding transition) of ENPP1” value (ENPP1 protein [2]; FIG. 3, ENPP1 alone 64.2° C.) of the same compound?
A: The value was 67.84 °C.

Q: What about the “selective at inhibiting ENPP1 but not ENPP2” value [3] of the same compound?
A: The value was “selective”.

Q: And the “inhibiting the activity of ENPP2” value ([3]; FIGS. 2A and 2B)?
A: The value was “ineffective”.

Q: Which “B16F10 tumor growth inhibition” value (B16F10 tumor; 30 mg/kg dose (FIG. 6A / FIG. 13A)) does the source give for `COc1cc(NC(=O)CSc2nc3cc(Cl)ncc3[nH]2)ccc1O` [Compound 22, 2-((6-chloro-3H-imidazo[4,5-c]pyridin-2-yl)thio)-N-(4-hydroxy-3-methoxyphenyl) acetamide] here?
A: Its value is 28%.

Q: And the “B16F10 tumor growth inhibition” value (B16F10 tumor; FIG. 6B / FIG. 13B, dose and route not stated)?
A: The value was 27%.

Q: What about the “CT26 tumor growth inhibition” value (CT26 tumor) of the same compound?
A: The value was 39%.

Q: And the “Tm (° C.)” value (ENPP1 protein [2]; Table 2, FIG. 7, 100 μM drug, 1.0 μg ENPP1, NT 60.05)?
A: The value was 61.37 °C.

Q: What about the ΔTm at 100 µM (ENPP1 protein [2]; Table 2, FIG. 7, 100 μM drug, 1.0 μg ENPP1, read-out: ΔTm (° C.)) of the same compound?
A: Its ΔTm at 100 µM is 1.32 °C.

Q: For `O=C(c1cc(Cc2n[nH]c(=O)c3ccccc23)ccc1F)N1CCN(C(=O)C2CC2)CC1` [Olaparib], which “ED50 Drug Concentration Olaparib” value (MDA-MB-468) is on record?
A: The value was 185065 nM.
